According to patent publication US8906928B2, “Substituted pyrazolo-pyrrolo-pyridine-dione compounds” (ArQule, Inc., priority 2009, dated 2014):

Legend:
Assay type in all cases: cell-based
[1] = test system: NCI-H1299; experiment: MTS assay (cell growth inhibition), NCI-H1299; details: NCI-H1299 cells, 72 hours incubation with test compound; concentration not given
Protocol: (§1) Cells were maintained at 37° C., 5% CO2 in DMEM media supplemented with 1% fetal bovine serum, penicillin/streptomycin and fungizone (Invitrogen). Cells were seeded into 96-well tissue culture plates at 3000 per well and cultured at 37° C. for 18 hours. Test compounds were dissolved and diluted to 300× in DMSO then diluted 1:40 in DMEM. Cells were incubated with test compounds for 72 hours followed by incubation with tetrazolium compound (3-(4,5-dimethylthiazol-2-yl)-5-(3-carboxymethoxyphenyl)-2-(4-sulfophenyl)-2H-tetrazolium, inner salt; MTS) and the electron coupling reagent, phenazine methosulfate (PMS) for 4 hours. […] The ability of compounds to inhibit cell growth in this assay is correlated with the reduction of dehydrogenase enzyme activity found in metabolically active cells. The measurement of the absorbance of the formazan was assessed using an ENVISION™ (Perkin Elmer) microplate reader at 492 nm. The calculated IC50 value is the concentration of the test compound that causes a 50% decrease in the absorbance.

[2] = test system: Kato III; experiment: MTS assay (cell growth inhibition), Kato III; details: Kato III cells, 72 hours incubation with test compound; concentration not given
Protocol: as §1

[3] = test system: PACA-2; experiment: MTS assay (cell growth inhibition), PACA-2; details: PACA-2 cells, 72 hours incubation with test compound; concentration not given
Protocol: as §1

[4] = test system: MDA-MB; experiment: MTS assay (cell growth inhibition), MDA-MB; details: MDA-MB cells, 72 hours incubation with test compound; concentration not given
Protocol: as §1

[5] = test system: DLD-1; experiment: MTS assay (cell growth inhibition), DLD-1; details: DLD-1 cells, 72 hours incubation with test compound; concentration not given
Protocol: as §1

[6] = test system: PC-3; experiment: MTS assay (cell growth inhibition), PC-3; details: PC-3 cells, 72 hours incubation with test compound; concentration not given
Protocol: as §1

| Structure (SMILES) | MTS CELL KILL DATA (% INHIBITION) NCI-H1299 [1] | MTS CELL KILL DATA (% INHIBITION) Kato III [2] | MTS CELL KILL DATA (% INHIBITION) PACA-2 [3] | MTS CELL KILL DATA (% INHIBITION) MDA-MB [4] | MTS CELL KILL DATA (% INHIBITION) DLD-1 [5] | MTS CELL KILL DATA (% INHIBITION) PC-3 [6] |
| --- | --- | --- | --- | --- | --- | --- |
| COc1cc(Cl)ccc1CN1C(=O)c2cnc3[nH]ncc3c2C1=O [Example 33, 7-(4-chloro-2-methoxybenzyl)pyrazolo[3,4-b]pyrrolo[3,4-d]pyridine-6,8(3H,7H)-dione] | C (C = <50% INHIBITION) | C (C = <50% INHIBITION) | C (C = <50% INHIBITION) | A (A = 80-100% INHIBITION) | C (C = <50% INHIBITION) | C (C = <50% INHIBITION) |
| O=C1c2cnc3[nH]ncc3c2C(=O)N1CCc1c2ccccc2cc2ccccc12 [Example 129, 7-[2-(9-anthryl)ethyl]pyrazolo[3,4-b]pyrrolo[3,4-d]pyridine-6,8(3H,7H)-dione] | C (C = <50% INHIBITION) | C (C = <50% INHIBITION) | C (C = <50% INHIBITION) | A (A = 80-100% INHIBITION) | A (A = 80-100% INHIBITION) | A (A = 80-100% INHIBITION) |
| COc1c(C)cnc(CN2C(=O)c3cnc4[nH]ncc4c3C2=O)c1C [Example 72, 7-[(4-methoxy-3,5-dimethylpyridin-2-yl)methyl]pyrazolo[3,4-b]pyrrolo[3,4-d]pyridine-6,8(3H,7H)-dione] | C (C = <50% INHIBITION) | A (A = 80-100% INHIBITION) | C (C = <50% INHIBITION) | A (A = 80-100% INHIBITION) | C (C = <50% INHIBITION) | A (A = 80-100% INHIBITION) |
| O=C1c2ccccc2C(=O)N1CCN1C(=O)c2cnc3[nH]ncc3c2C1=O [Example 131, 7-[2-(1,3-dioxo-1,3-dihydro-2H-isoindol-2-yl)ethyl]pyrazolo[3,4-b]pyrrolo[3,4-d]pyridine-6,8(3H,7H)-dione] | A (A = 80-100% INHIBITION) | A (A = 80-100% INHIBITION) | A (A = 80-100% INHIBITION) | A (A = 80-100% INHIBITION) | A (A = 80-100% INHIBITION) | A (A = 80-100% INHIBITION) |
| Cc1ccc2c(c1)N(CCN1C(=O)c3cnc4[nH]ncc4c3C1=O)C(C)(C)CC2C (stereo not drawn) [Example 29, 7-[2-(2,2,4,7-tetramethyl-3,4-dihydroquinolin-1(2H)-yl)ethyl]pyrazolo[3,4-b]pyrrolo[3,4-d]pyridine-6,8(3H,7H)-dione] | C (C = <50% INHIBITION) | C (C = <50% INHIBITION) | A (A = 80-100% INHIBITION) | A (A = 80-100% INHIBITION) | C (C = <50% INHIBITION) | A (A = 80-100% INHIBITION) |
| Cc1ccc(Cl)c(CN2C(=O)c3cnc4[nH]ncc4c3C2=O)c1F [Example 19, 7-(6-chloro-2-fluoro-3-methylbenzyl)pyrazolo[3,4-b]pyrrolo[3,4-d]pyridine-6,8(3H,7H)-dione] | C (C = <50% INHIBITION) | A (A = 80-100% INHIBITION) | C (C = <50% INHIBITION) | B (B = 50-79% INHIBITION) | C (C = <50% INHIBITION) | A (A = 80-100% INHIBITION) |
